Experimental data: patent publication US20100168103A1, “DIARYL PIPERIDINE COMPOUNDS AS CALCIUM CHANNEL BLOCKERS” (NEUROMED PHARMACEUTICALS LTD., priority 2006, published 2010)
Where two headings read alike, the source gives them in different places.

Target: T1, rat brain N-type calcium channel subunits (α1B+α2δ+β1b cDNA subunits) (Rattus norvegicus, UniProt Q02294)
T1 construct: expressed in transfected cells; host or cells: HEK 293
Test: N-type calcium channel block, whole cell patch clamp in transfected HEK 293 cells
Assay type: cell-based
Details: holding potential −80 mV to +10 mV
Procedure: N-type calcium channel blocking activity was assayed in human embryonic kidney cells, HEK 293, stably transfected with the rat brain N-type calcium channel subunits (α1B+α2δ+β1b cDNA subunits). Alternatively, N-type calcium channels (α1B+α2δ+β1b cDNA subunits), L-type channels (α1C+α2δ+β1b cDNA subunits) and P/Q-type channels (α1A+α2δ+β1b cDNA subunits) were transiently expressed in HEK 293 cells. Briefly, cells were cultured in Dulbecco's modified eagle medium (DMEM) supplemented with 10% fetal bovine serum, 200 U/ml penicillin and 0.2 mg/ml streptomycin at 37° C. with 5% CO2. At 85% confluency cells were split with 0.25% trypsin/1 mM EDTA and plated at 10% confluency on glass coverslips. At 12 hours the medium was replaced and the cells transiently transfected using a standard calcium phosphate protocol and the appropriate calcium channel cDNA's. Fresh DMEM was supplied and the cells transferred to 28° C./5% CO2. Cells were incubated for 1 to 2 days prior to whole cell recording.
Whole cell patch clamp experiments were performed using an Axopatch 200B amplifier (Axon Instruments, Burlingame, Calif.) linked to a personal computer equipped with pCLAMP software. The external and internal recording solutions contained, respectively, 5 mM BaCl2, 10 mM MgCl2, 10 mM HEPES, 40 mM TEACl, 10 mM glucose, 87.5 mM CsCl (pH 7.2) and 108 mM CsMS, 4 mM MgCl2, 9 mM EGTA, 9 mM HEPES (pH 7.2). Currents were typically elicited from a holding potential of −80 mV to +10 mV using Clampex software (Axon Instruments). Typically, currents were first elicited with low frequency stimulation (0.067 Hz) and allowed to stabilize prior to application of the compounds. The compounds were then applied during the low frequency pulse trains for two to three minutes to assess tonic block, and subsequently the pulse frequency was increased to 0.2 Hz to assess frequency dependent block. Data were analyzed using Clampfit (Axon Instruments) and SigmaPlot 4.0 (Jandel Scientific).

[1] = low frequency stimulation 0.067 Hz (tonic block), 5 mM BaCl2, read-out: IC50 @ 0.067 Hz
[2] = pulse frequency 0.2 Hz (frequency dependent block), 5 mM BaCl2, read-out: IC50 @ 0.2 Hz

T1 sequence (Q02294 whole entry): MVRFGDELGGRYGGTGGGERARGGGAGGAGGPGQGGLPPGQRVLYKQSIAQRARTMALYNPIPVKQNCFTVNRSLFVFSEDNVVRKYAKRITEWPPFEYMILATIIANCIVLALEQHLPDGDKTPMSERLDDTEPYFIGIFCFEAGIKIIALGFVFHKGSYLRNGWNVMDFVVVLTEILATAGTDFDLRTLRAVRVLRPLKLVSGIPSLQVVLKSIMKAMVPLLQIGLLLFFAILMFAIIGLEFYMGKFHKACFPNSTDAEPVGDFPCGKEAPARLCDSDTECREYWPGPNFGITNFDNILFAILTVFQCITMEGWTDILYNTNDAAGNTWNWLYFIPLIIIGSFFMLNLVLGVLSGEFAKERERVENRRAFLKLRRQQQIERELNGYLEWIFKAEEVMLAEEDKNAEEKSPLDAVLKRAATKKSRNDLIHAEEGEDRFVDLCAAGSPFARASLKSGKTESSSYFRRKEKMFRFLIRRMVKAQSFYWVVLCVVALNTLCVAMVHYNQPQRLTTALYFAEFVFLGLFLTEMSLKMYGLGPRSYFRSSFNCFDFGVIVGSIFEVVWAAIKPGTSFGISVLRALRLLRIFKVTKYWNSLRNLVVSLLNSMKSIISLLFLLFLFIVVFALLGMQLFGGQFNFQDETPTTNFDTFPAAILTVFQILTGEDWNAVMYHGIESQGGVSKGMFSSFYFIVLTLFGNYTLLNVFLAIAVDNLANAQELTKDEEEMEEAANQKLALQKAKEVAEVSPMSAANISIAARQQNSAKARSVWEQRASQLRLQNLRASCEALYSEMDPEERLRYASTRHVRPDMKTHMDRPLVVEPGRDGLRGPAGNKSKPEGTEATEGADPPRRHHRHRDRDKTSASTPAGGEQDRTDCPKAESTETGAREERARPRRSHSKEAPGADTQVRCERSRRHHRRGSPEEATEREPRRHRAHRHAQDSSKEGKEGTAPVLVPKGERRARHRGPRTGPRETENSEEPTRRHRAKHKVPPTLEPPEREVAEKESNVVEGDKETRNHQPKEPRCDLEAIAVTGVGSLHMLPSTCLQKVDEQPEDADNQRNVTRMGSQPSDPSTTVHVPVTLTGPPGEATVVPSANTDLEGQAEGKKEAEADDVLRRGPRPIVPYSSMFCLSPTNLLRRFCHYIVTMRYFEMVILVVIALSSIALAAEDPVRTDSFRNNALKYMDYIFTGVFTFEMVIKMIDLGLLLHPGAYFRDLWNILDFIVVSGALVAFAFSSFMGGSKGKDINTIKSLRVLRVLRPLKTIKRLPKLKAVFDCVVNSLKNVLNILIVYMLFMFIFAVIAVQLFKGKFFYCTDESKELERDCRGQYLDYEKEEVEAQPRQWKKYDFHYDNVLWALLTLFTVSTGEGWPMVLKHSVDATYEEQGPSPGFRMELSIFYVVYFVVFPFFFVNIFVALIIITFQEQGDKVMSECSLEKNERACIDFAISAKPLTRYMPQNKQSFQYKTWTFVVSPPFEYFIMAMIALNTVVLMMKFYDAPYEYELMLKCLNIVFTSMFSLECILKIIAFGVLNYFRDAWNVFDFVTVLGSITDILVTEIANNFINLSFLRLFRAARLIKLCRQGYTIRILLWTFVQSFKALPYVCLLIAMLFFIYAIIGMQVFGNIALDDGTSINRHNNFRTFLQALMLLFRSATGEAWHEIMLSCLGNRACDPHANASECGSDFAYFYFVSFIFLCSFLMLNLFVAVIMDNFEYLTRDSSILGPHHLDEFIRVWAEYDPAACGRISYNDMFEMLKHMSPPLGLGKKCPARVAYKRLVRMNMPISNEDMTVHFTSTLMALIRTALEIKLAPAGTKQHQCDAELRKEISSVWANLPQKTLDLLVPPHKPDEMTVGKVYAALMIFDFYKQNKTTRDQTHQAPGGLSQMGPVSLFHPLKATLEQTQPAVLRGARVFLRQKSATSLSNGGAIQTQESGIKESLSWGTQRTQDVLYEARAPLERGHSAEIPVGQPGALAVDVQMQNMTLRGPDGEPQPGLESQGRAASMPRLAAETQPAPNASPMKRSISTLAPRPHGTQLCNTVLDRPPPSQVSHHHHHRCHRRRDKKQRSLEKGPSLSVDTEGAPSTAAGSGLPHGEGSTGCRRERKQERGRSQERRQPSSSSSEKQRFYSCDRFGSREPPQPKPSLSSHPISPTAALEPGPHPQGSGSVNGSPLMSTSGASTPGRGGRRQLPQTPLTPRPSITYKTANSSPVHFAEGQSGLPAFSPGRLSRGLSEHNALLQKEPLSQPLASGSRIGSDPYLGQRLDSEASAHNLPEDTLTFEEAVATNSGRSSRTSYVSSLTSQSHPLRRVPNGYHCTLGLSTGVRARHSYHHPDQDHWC
T1 sequence (P54290 25-944 partner limits assumed): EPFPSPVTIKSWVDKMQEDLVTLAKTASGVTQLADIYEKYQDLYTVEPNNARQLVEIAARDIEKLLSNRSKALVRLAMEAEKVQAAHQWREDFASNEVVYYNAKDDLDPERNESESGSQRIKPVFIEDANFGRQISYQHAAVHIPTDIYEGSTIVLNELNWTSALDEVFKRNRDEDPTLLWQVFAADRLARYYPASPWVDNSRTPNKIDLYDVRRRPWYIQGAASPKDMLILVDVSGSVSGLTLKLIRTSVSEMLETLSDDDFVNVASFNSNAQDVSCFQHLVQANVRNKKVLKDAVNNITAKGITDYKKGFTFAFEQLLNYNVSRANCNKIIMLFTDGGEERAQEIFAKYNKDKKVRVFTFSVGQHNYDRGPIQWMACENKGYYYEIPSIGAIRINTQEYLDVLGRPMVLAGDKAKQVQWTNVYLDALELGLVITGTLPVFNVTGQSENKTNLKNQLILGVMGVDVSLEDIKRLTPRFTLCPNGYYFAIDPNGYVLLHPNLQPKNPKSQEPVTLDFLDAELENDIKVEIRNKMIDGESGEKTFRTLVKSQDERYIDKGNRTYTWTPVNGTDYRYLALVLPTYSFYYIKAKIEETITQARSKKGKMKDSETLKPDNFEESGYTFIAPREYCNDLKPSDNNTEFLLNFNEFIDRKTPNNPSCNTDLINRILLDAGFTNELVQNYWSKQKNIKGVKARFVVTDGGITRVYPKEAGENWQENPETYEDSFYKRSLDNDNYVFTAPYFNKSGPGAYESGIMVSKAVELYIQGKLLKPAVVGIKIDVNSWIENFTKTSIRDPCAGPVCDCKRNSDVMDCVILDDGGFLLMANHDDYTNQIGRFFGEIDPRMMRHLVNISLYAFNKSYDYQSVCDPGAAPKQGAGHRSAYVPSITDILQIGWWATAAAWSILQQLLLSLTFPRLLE
T1 sequence (P54290 945-1091 partner limits assumed): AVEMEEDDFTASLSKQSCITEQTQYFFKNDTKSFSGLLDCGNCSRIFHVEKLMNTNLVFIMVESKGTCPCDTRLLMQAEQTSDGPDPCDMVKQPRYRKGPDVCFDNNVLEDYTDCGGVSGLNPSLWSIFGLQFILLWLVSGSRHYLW
T1 sequence (P54283 whole entry partner): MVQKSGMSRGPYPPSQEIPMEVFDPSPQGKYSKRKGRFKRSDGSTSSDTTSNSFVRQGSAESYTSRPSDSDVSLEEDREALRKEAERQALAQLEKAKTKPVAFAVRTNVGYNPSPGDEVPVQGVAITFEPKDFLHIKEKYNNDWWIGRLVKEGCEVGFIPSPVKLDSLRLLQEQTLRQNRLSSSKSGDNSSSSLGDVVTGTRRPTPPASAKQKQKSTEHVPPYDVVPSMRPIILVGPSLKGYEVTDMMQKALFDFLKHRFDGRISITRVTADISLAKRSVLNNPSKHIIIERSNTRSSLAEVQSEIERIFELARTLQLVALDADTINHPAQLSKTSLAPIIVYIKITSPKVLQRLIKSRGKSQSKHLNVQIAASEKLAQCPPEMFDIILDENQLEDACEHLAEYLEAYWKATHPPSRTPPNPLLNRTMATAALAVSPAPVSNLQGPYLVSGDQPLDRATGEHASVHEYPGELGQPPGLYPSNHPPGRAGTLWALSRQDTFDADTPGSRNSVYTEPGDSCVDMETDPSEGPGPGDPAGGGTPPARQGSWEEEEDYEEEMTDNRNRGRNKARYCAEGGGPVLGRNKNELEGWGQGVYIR

| Structure (SMILES) | IC50 [1] [µM] | IC50 [2] [µM] |
| --- | --- | --- |
| Cc1ccccc1C(CC(=O)N1CCC(C(=O)N2CCN(C)CC2)(c2ccccc2)CC1)c1ccccc1C [Compound 37, 1-(4-(4-methylpiperazine-1-carbonyl)-4-phenylpiperidin-1-yl)-3,3-di-o-tolylpropan-1-one] | 0.38 | 0.29 |
| CN1CCN(C(=O)C2(c3ccccc3)CCN(C(=O)NC(c3ccccc3)c3ccccc3)CC2)CC1 [Compound 38, N-benzhydryl-4-(4-methylpiperazine-1-carbonyl)-4-phenylpiperidine-1-carboxamide] | > 2.29 | 1.42 |
| O=C(NC(c1ccccc1)c1ccccc1)N1CCC(CN2CCCCC2)CC1 [Compound 41, N-benzhydryl-4-(piperidin-1-ylmethyl)piperidine-1-carboxamide] | 5.21 | 3.49 |
| Cc1ccccc1C(CC(=O)N1CCC(CN2CCCCC2)CC1)c1ccccc1C [Compound 42, 1-(4-(piperidin-1-ylmethyl)piperidin-1-yl)-3,3-di-o-tolylpropan-1-one] | 6.59 | 2.44 |
| O=C(CNC(c1ccccc1)c1ccccc1)N1CCC(CN2CCCCC2)CC1 [Compound 43, 2-(benzhydrylamino)-1-(4-(piperidin-1-ylmethyl)piperidin-1-yl)ethanone] | 5.32 | 5.26 |
| O=C(C[S+]([O-])C(c1ccccc1)c1ccccc1)N1CCC(CN2CCCCC2)CC1 (centres unmarked) [Compound 44, 2-(benzhydrylsulfinyl)-1-(4-(piperidin-1-ylmethyl)piperidin-1-yl)ethanone] | 8.4 | 4.1 |
| Cc1ccccc1C(CC(=O)N1CCC(CN2CCCCC2)(c2ccccc2)CC1)c1ccccc1C [Compound 46, 1-(4-phenyl-4-(piperidin-1-ylmethyl)piperidin-1-yl)-3,3-di-o-tolylpropan-1-one] | 0.32 | 0.25 |
| O=C(C[S+]([O-])C(c1ccccc1)c1ccccc1)N1CCC(CN2CCCCC2)(c2ccccc2)CC1 (centres unmarked) [Compound 48, 2-(benzhydrylsulfinyl)-1-(4-phenyl-4-(piperidin-1-ylmethyl)piperidin-1-yl)ethanone] | 1.25 | 0.93 |
| O=C(CC(c1ccccc1)c1ccccc1)N1CCC(C(c2ccccc2)N2CCCCC2)CC1 (centres unmarked) [Compound 50, 3,3-diphenyl-1-(4-(phenyl(piperidin-1-yl)methyl)piperidin-1-yl)propan-1-one] | 2.3 | 1.5 |
| O=C(COC(c1ccccc1)c1ccccc1)N1CCC(C(c2ccccc2)N2CCCCC2)CC1 (centres unmarked) [Compound 52] | 0.63 | 0.45 |
| CN1CCN(C(c2ccccc2)C2CCN(C(=O)CC(c3ccccc3)c3ccccc3)CC2)CC1 (centres unmarked) [Compound 54, 1-(4-((4-methylpiperazin-1-yl)(phenyl)methyl)piperidin-1-yl)-3,3-diphenylpropan-1-one] | 2.36 | 1.32 |
| CC1CN(C(c2ccccc2)C2CCN(C(=O)CC(c3ccccc3)c3ccccc3)CC2)CC(C)N1 (centres unmarked) [Compound 55, 1-(4-((3,5-dimethylpiperazin-1-yl)(phenyl)methyl)piperidin-1-yl)-3,3-diphenylpropan-1-one] | 0.88 | 0.42 |
| Cc1ccccc1C(CC(=O)N1CCC(C(c2ccccc2)N2CCN(C)CC2)CC1)c1ccccc1C (centres unmarked) [Compound 56, 1-(4-((4-methylpiperazin-1-yl)(phenyl)methyl)piperidin-1-yl)-3,3-di-o-tolylpropan-1-one] | 0.27 | 0.15 |
| Cc1ccccc1C(CC(=O)N1CCC(C(c2ccccc2)N2CC(C)NC(C)C2)CC1)c1ccccc1C (centres unmarked) [Compound 57, 1-(4-((3,5-dimethylpiperazin-1-yl)(phenyl)methyl)piperidin-1-yl)-3,3-di-o-tolylpropan-1-one] | 0.93 | 0.44 |
| O=C(NC(c1cccc(F)c1)c1cccc(F)c1)N1CCC(CN2CCCCC2)CC1 [Compound 60] | 5.59 |  |
| CC(C)(C)N1CCN(CC2CCN(C(=O)CC(c3ccccc3)c3ccccc3)CC2)CC1 [Compound 66, 1-(4-((4-tert-butylpiperazin-1-yl)methyl)piperidin-1-yl)-3,3-diphenylpropan-1-one] | 2.18 | 1.23 |
| Cc1ccccc1C(CC(=O)N1CCC(CN2CCN(C(C)(C)C)CC2)CC1)c1ccccc1C [Compound 67, 1-(4-((4-tert-butylpiperazin-1-yl)methyl)piperidin-1-yl)-3,3-di-o-tolylpropan-1-one] | 0.53 | 0.25 |
| CC(C)(C)N1CCN(CC2CCN(C(=O)CCCCC(c3ccccc3)c3ccccc3)CC2)CC1 [Compound 74, 1-(4-((4-tert-butylpiperazin-1-yl)methyl)piperidin-1-yl)-6,6-diphenylhexan-1-one] | 0.42 | 0.29 |
| CC(C)(C)N1CCN(C(=O)C2CCN(C(=O)CC(c3ccccc3)c3ccccc3)CC2)CC1 [Compound 78, 1-(4-(4-tert-butylpiperazine-1-carbonyl)piperidin-1-yl)-3,3-diphenylpropan-1-one] | > 6.45 | > 3.34 |
| Cc1ccccc1C(CC(=O)N1CCC(C(=O)N2CCN(C(C)(C)C)CC2)CC1)c1ccccc1C [Compound 79, 1-(4-(4-tert-butylpiperazine-1-carbonyl)piperidin-1-yl)-3,3-di-o-tolylpropan-1-one] | 1.48 | 0.94 |
| CC(C)(C)N1CCN(C(=O)C2CCN(C(=O)NC(c3ccccc3)c3ccccc3)CC2)CC1 [Compound 80, N-benzhydryl-4-(4-tert-butylpiperazin-1-carbonyl)piperidine-1-carboxamide] | 11.6 |  |
| CC(C)(C)N1CCN(C(=O)C2CCN(C(=O)CC(c3ccc(F)cc3)c3ccc(F)cc3)CC2)CC1 [Compound 81, 1-(4-(4-tert-butylpiperazine-1-carbonyl)piperidin-1-yl)-3,3-bis(4-fluorophenyl)propan-1-one] | 4.4 | 2.47 |
| CC(C)(C)N1CCN(C(=O)C2CCN(C(=O)COC(c3ccc(F)cc3)c3ccc(F)cc3)CC2)CC1 [Compound 82, 2-(bis(4-fluorophenyl)methoxy)-1-(4-(4-tert-butylpiperazine-1-carbonyl)piperidin-1-yl)ethanone] | 2.59 | 15.6 |
| COc1ccccc1C(CC(=O)N1CCC(C(c2ccccc2)N2CC(C)NC(C)C2)CC1)c1ccccc1OC (centres unmarked) [Compound 83, 1-(4-((3,5-dimethylpiperazin-1-yl)(phenyl)methyl)piperidin-1-yl)-3,3-bis(2-methoxyphenyl)propan-1-one] | 3 | 1.57 |
| COc1ccccc1C(CC(=O)N1CCC(C(=O)N2CCN(C(C)(C)C)CC2)CC1)c1ccccc1OC [Compound 87, 1-(4-(4-tert-butylpiperazine-1-carbonyl)piperidin-1-yl)-3,3-bis(2-methoxyphenyl)propan-1-one] | 6.91 | 2.71 |
| Cc1ccccc1C(CC(=O)N1CCC(C(c2ccccc2)N2CCN(C(C)(C)C)CC2)CC1)c1ccccc1C (centres unmarked) [Compound 101, 1-(4-((4-tert-butylpiperazin-1-yl)(phenyl)methyl)piperidin-1-yl)-3,3-di-o-tolylpropan-1-one] | 1.41 | 0.8 |
